Experimental data taken from patent publication US10934309B2, “Tricyclic quinone derivative” (Boston Biomedical, Inc., priority 2014, dated 2021).

Tests used:
Type in all cases: cell-based, human
FaDu cells [1] = experiment: Proliferation inhibition assay of cancer cells (Test Example 1), FaDu; details: Homo sapiens, FaDu, 96 h, FaDu cells, cultured for 4 days, Cell Titer-Glo; read-out: IC50 (μM) FaDu; concentration for 50% inhibition of cell proliferation (Bulk IC50 value)
Procedure, shortened: (§1)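 Test substance added at a final DMSO level of 0.1% and cells cultured 4 days; plating density 300-600 cells/well in 384-well plates, with human colon lines HCT-116 and HT-29 and hypopharyngeal line FaDu.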

HT-29 cells [2] = experiment: Proliferation inhibition assay of cancer cells (Test Example 1), HT-29; details: Homo sapiens, HT-29, 96 h, HT-29 cells, cultured for 4 days, Cell Titer-Glo; read-out: IC50 (μM) HT; concentration for 50% inhibition of cell proliferation (Bulk IC50 value)
Procedure, shortened: as §1

HCT-116 cells [3] = experiment: Inhibition assay of cancer cell sphere-forming ability (Test Example 2), HCT-116; details: Homo sapiens, HCT-116, 96 h, HCT-116 cells, Ultra-Low Attachment plate, serum-free DMEM/F12 with B27, EGF, bFGF, insulin, 4 days, Cell Titer-Glo; read-out: IC50 (μM) HCT; concentration for 50% inhibition of cell proliferation (Sphere IC50 value)
Procedure, shortened: (§2)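 Human tumour lines (colon HCT-116, HT-29; hypopharynx FaDu) seeded on ultra-low-attachment plates to form spheres. Compound added at 0.1% final DMSO, cultured 4 days.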

HT-29 cells [4] = experiment: Inhibition assay of cancer cell sphere-forming ability (Test Example 2), HT-29; details: Homo sapiens, HT-29, 96 h, HT-29 cells, Ultra-Low Attachment plate, serum-free DMEM/F12 with B27, EGF, bFGF, insulin, 4 days, Cell Titer-Glo; read-out: IC50 (μM) HT; concentration for 50% inhibition of cell proliferation (Sphere IC50 value)
Procedure, shortened: as §2

HCT-116 cells [5] = experiment: Proliferation inhibition assay of cancer cells (Test Example 1), HCT-116; details: Homo sapiens, HCT-116, 96 h, HCT-116 cells, cultured for 4 days, Cell Titer-Glo; read-out: IC50 (μM) HCT; concentration for 50% inhibition of cell proliferation (Bulk IC50 value)
Procedure, shortened: as §1

cancer cells [6] = experiment: Proliferation inhibition test of cancer cells, overall statement on Table 1; details: summary of Table 1
Method: HCT-116 cells (derived from human colon adenocarcinoma), HT-29 cells (derived from human colon cancer), and FaDu cells (derived from human hypopharynx cancer) were obtained from American Type Culture Collection (ATCC). HCT-116 cells and HT-29 cells were cultured using McCoy's 5a medium containing 10% fetal bovine serum (FBS) and 1% penicillin/streptomycin, and FaDu cells were cultured using MEM medium containing 10% FBS, 1% non-essential amino acid, 1% sodium pyruvate, and 1% penicillin/streptomycin, respectively, at 37° C. in the presence of 5% CO2. After cells were seeded at 300-600 cells/well onto black μClear-plate 384 well (Greiner bio-one Cat. No. 781091), a test substance was added such that the final concentration of DMSO is 0.1%, and cultured for 4 days. The number of living cells was then counted using Cell Titer-Glo (Registered trademark) Luminescent Cell Viability Assay (Promega) to calculate a concentration for 50% inhibition of cell proliferation of respective test substances (Bulk IC50 value; μM).

cancer cells [7] = experiment: Inhibition test of cancer cell sphere-forming ability, overall statement on Table 2; details: summary of Table 2
Method: HCT-116 cells (derived from human colon adenocarcinoma), HT-29 cells (derived from human colon cancer), FaDu cells (derived from human hypopharynx cancer) were obtained from American Type Culture Collection (ATCC). HCT-116 cells and HT-29 cells were cultured using McCoy's 5a medium containing 10% fetal bovine serum (FBS) and 1% penicillin/streptomycin, and FaDu cells were cultured using MEM medium containing 10% FBS, 1% non-essential amino acid, 1% sodium pyruvate, and 1% penicillin/streptomycin, respectively, at 37° C. in the presence of 5% CO2. HCT-116 cells, HT-29 cells, and FaDu cells were seeded onto 384 Well Black Clear Bottom Ultra-Low Attachment Microplate (Corning Cat. No. 3827) using DMEM/F12 medium containing 2% B27 supplement (GIBCO), 20 ng/mL epidermal growth factor (EGF) (peprotech), 10 ng/mL basic fibroblast growth factor (bFGF) (peprotech), 5 μg/mL insulin (Sigma), and 1% penicillin/streptomycin to be 350-800 cells/well. A test substance was added so that the final concentration of DMSO is 0.1%, and then cultured for 4 days. The number of living cells was then counted using Cell Titer-Glo (registered trademark) Luminescent Cell Viability Assay (Promega) to calculate the concentration for 50% inhibition of cell proliferation of respective test substances (Sphere IC50 value; μM).

FaDu cells [8] = experiment: Inhibition assay of cancer cell sphere-forming ability (Test Example 2), FaDu; details: Homo sapiens, FaDu, 96 h, FaDu cells, Ultra-Low Attachment plate, serum-free DMEM/F12 with B27, EGF, bFGF, insulin, 4 days, Cell Titer-Glo; read-out: IC50 (μM) FaDu; concentration for 50% inhibition of cell proliferation (Sphere IC50 value)
Procedure, shortened: as §2

SMILES | IC50 (FaDu cells [1]) | IC50 (HT-29 cells [2]) | IC50 (HCT-116 cells [3]) | IC50 (HT-29 cells [4]) | IC50 (HCT-116 cells [5]) | effect on the inhibition of the proliferation of cancer cells (in words) (cancer cells [6]) | effect to inhibit cancer cell sphere-forming ability (in words) (cancer cells [7]) | IC50 (FaDu cells [8])
N#Cc1cc2c(s1)C(=O)c1ccncc1C2=O [Example 29, 4,9-dioxo-4,9-dihydrothieno[2,3-g]isoquinoline-2-carbonitrile] | < 0.01 µM | 0.32 µM | 0.05 µM | 0.05 µM | 0.04 µM | particularly strong effect | particularly strong effect | < 0.01 µM
O=C(NCC(F)F)c1cc2c(o1)C(=O)c1ccncc1C2=O [Example 46, N-(2,2-difluoroethyl)-4,9-dioxo-4,9-dihydrofuro[2,3-g]isoquinoline-2-carboxamide] | < 0.01 µM | 0.05 µM | 0.04 µM | 0.05 µM | < 0.01 µM | particularly strong effect | particularly strong effect | < 0.01 µM
CC(=O)c1cc2c(s1)C(=O)c1ccncc1C2=O [Example 12, 2-acetylthieno[2,3-g]isoquinoline-4,9-dione] | < 0.01 µM | 0.18 µM | 0.04 µM | 0.03 µM | 0.05 µM | particularly strong effect | particularly strong effect | < 0.01 µM
O=C1c2cnccc2C(=O)c2sc(C(O)C3CC3)cc21 (stereo not shown) [Example 16, 2-[cyclopropyl(hydroxy)methyl]thieno[2,3-g]isoquinoline-4,9-dione] | < 0.01 µM | 0.58 µM | 0.22 µM | 0.15 µM | 0.06 µM | particularly strong effect | particularly strong effect | < 0.01 µM
CCc1noc(-c2cc3c(s2)C(=O)c2ccncc2C3=O)n1 [Example 31, 2-(3-ethyl-1,2,4-oxadiazol-5-yl)thieno[2,3-g]isoquinoline-4,9-dione] | < 0.01 µM | 0.31 µM | 0.03 µM | < 0.01 µM | 0.04 µM | particularly strong effect | particularly strong effect | < 0.01 µM
O=C1c2cnccc2C(=O)c2oc(C(F)F)cc21 [Example 63, 2-(difluoromethyl)furo[2,3-g]isoquinoline-4,9-dione] | 0.05 µM | 0.54 µM | 0.06 µM | 0.24 µM | 0.05 µM | particularly strong effect | particularly strong effect | 0.04 µM
CC(=O)c1cc2c(s1)C(=O)c1cnccc1C2=O [Example 33, 2-acetylthieno[3,2-g]isoquinoline-4,9-dione] | < 0.01 µM | 0.09 µM | 0.02 µM | 0.07 µM | < 0.01 µM | particularly strong effect | particularly strong effect | < 0.01 µM
O=C1c2cnccc2C(=O)c2sc(C(=O)N3CCOCC3)cc21 [Example 20, 2-(morpholin-4-ylcarbonyl)thieno[2,3-g]isoquinoline-4,9-dione] | < 0.01 µM | 0.09 µM | 0.06 µM | 0.06 µM | 0.05 µM | particularly strong effect | particularly strong effect | < 0.01 µM
